From patent US10280465B2, “Biomarkers for predicting relapse in multiple sclerosis” (The United States of America as represented by the …, priority 2014, dated 2019)
“Also recorded” adds a separate entry of the source.

Key:
EAE = conditions: cited from earlier work
activated T cells = conditions: Singh et al., 2007; cited from earlier work
Jurkat cells = assay: Annexin V-FITC binding (early apoptosis) by FACS, Jurkat cells; type: cell-based; conditions: sirtinol 200 μM, 24 h
Procedure: (§1) PBMCs and Jurkat cells were plated in RPMI-10% FBS in 12-well plates 24 h prior to Annexin V FITC FACS analysis. Some of the cells were treated with sirtinol (200 μM) and the binding of Annexin V-FITC to cells was compared with that of cells exposed to vehicle (DMSO) only. Annexin V assay was performed according to manufacturer instructions (BD Biosciences) and only Annexin V FITC positive, propidium iodide negative cells were used in the evaluations since they are reflecting early apoptosis.

[1] = tested on: CD4+ T cells from an MS patient; assay: Annexin V-FITC binding (early apoptosis) by FACS, CD4+ T cells from an MS patient; type: cell-based, human; conditions: sirtinol 200 μM, 24 h
Procedure: as §1

[2] = tested on: CD8+ T cells from an MS patient; assay: Annexin V-FITC binding (early apoptosis) by FACS, CD8+ T cells from an MS patient; type: cell-based, human; conditions: sirtinol 200 μM, 24 h
Procedure: as §1

SIRT1 mRNA = SIRT1 mRNA expression in PBMCs from stable MS patients after sirtinol; type: cell-based, human; conditions: sirtinol 200 μM, data not shown
FasL = FasL expression by FACS analysis in PBMCs from a stable MS patient after sirtinol; type: cell-based, human; conditions: sirtinol 200 μM
Procedure: FIGS. 8A-8D. Effect of SIRT 1 inhibition on FasL expression. PBMCs from a stable MS patient (FIG. 8A, FIG. 8C) were pretreated with the SIRT1 inhibitor sirtinol (200 μM) for 24 h (FIG. 8B, FIG. 8D), cultured with CD4^+ (FIG. 8B) or CD8^+ (FIG. 8D) T cells, and expression of FasL was then determined by FACS analysis.

RRMS = assay: Clinical response to glatiramer acetate in RRMS patients over 2 years; type: in vivo, human; conditions: 15 RRMS patients, 20 mg subcutaneously every day for 2 years
Source text: A total of 15 patients with RRMS were enrolled in the study. The patients were recruited from the University of Maryland Multiple Sclerosis Center. The mean age was 40 (range, 22-60), and consisted of 60% females (n=9) and 40% males (n=6). The criteria for inclusion of MS patients in the study were: (i) age 18 to 65 years; (ii) fulfillment of the McDonald criteria for definite MS (McDonald et al., 2001; Polman et al., 2005); (iii) relapsing-remitting course; (iv) having newly diagnosed MS, or MS not treated with currently used immunomodulatory drugs (interferon-β or glatiramer acetate) for 3 months prior to study entry; (v) no exacerbations in the 4 weeks before the study; (vi) no i.v. or p.o. steroids for 4 weeks prior to study enrollment; (vii) no treatment with Tysabri, Gilenya, mitoxantrone, cyclophosphamide, or any investigational drug during the past year; and (viii) a disability score of 0-5.5, as defined by the expanded disability status scale (EDSS) (Kurtzke, 1983). […]
All MS patients received 20 mg of glatiramer acetate (GA) injected subcutaneously every day for 2 years. During this period of 2 years, patients were clinically evaluated and peripheral blood samples were collected at 0, 3, 6, and 12 months at the time of their outpatient visits. […]

Oc1ccc(C=Cc2cc(O)cc(O)c2)cc1 [resveratrol]
disease course in EAE (EAE; Nimmagadda et al., 2013): ameliorates the disease course
spinal cord inflammation during EAE (EAE; Singh et al., 2007): decrease in spinal cord inflammation
apoptosis in activated T cells (activated T cells): trigger apoptosis

CC(NC(=O)c1ccccc1/N=C/c1c(O)ccc2ccccc12)c1ccccc1 (stereo not drawn) [sirtinol]
Annexin V binding / apoptosis, in words (Jurkat cells): significant apoptosis; also recorded: significant increase in Annexin V binding
cells binding Annexin V (Jurkat cells; vehicle DMSO control 6%): 65%
Annexin V binding / apoptosis, in words ([1]; CD4+ T cells from an MS patient): significant apoptosis; also recorded: significant increase in Annexin V binding
apoptosis (Annexin V binding) ([1]; CD4 cells, control cells 6%): 55%
Annexin V binding / apoptosis, in words ([2]; CD8+ T cells from an MS patient): significant apoptosis; also recorded: significant increase in Annexin V binding
apoptosis (Annexin V binding) ([2]; CD8 cells, control cells 22%): 81%
inhibition of the expression of SIRT1 mRNA (SIRT1 mRNA): 50%
FasL expression (FasL; CD4+ T cells, 24 h): significant increase
FasL expression (FasL; CD8+ T cells, 24 h): significant increase
FasL expression (FasL; PBMCs from stable MS patients): significantly increased

glatiramer acetate [GA]
non-responders (2 or more relapse events during the 2 year span) (RRMS): 4
responders (0 or no more than 1 relapse event during the 2 year span) (RRMS): 11
